Data taken from ChEMBL document CHEMBL1153102, “Synthesis and antiproliferative activity of pyrrolo[3,2-b]pyridine derivatives against melanoma” (Bioorg Med Chem Lett, 2010).

Key:
[1] = Cytotoxicity against human A375P cells by MTT assay; format: functional, cell-based
HS27 = experiment: Cytotoxicity against human HS27 cells by MTT assay; format: cell-based

Compound `O=C(Nc1ccc(-n2ccc3nc(C(=O)NCc4ccccc4)ccc32)cc1)c1ccc(Cl)c(C(F)(F)F)c1` has an IC50 [1] of 0.7 µM and an IC50 (HS27) of 1.5 µM.
With `NC(=O)c1ccc2c(ccn2-c2ccc(NC(=O)c3cccc(C(F)(F)F)c3)cc2)n1` the IC50 [1] was > 10 µM and the IC50 (HS27) was > 10 µM.
With `NC(=O)c1ccc2c(ccn2-c2ccc(NC(=O)Nc3ccc(Cl)c(Cl)c3)cc2)n1` the IC50 [1] was 3.2 µM and the IC50 (HS27) was 6.6 µM.
In the case of `O=C(Nc1ccc(-n2ccc3nc(C(=O)NCc4ccccc4)ccc32)cc1)c1cc(N2CCOCC2)cc(C(F)(F)F)c1`, the IC50 [1] is reported as > 10 µM and the IC50 (HS27) is reported as > 10 µM.
With `O=C(Nc1ccc(-n2ccc3nc(C(=O)NCc4ccccc4)ccc32)cc1)c1cccc(C(F)(F)F)c1` the IC50 [1] was 3 µM and the IC50 (HS27) was > 10 µM.
In the case of `NC(=O)c1ccc2c(ccn2-c2ccc(NC(=O)c3ccc(Cl)c(C(F)(F)F)c3)cc2)n1`, the IC50 [1] is reported as 8.9 µM and the IC50 (HS27) is reported as > 10 µM.
For `O=C(Nc1ccc(-n2ccc3nc(C(=O)NCc4ccccc4)ccc32)cc1)Nc1cccc(Cl)c1Cl`, the IC50 [1] was > 10 µM and the IC50 (HS27) was > 10 µM.
In the case of `NC(=O)c1ccc2c(ccn2-c2ccc(NC(=O)Nc3ccc(Cl)c(C(F)(F)F)c3)cc2)n1`, the IC50 [1] is reported as 9.9 µM and the IC50 (HS27) is reported as > 10 µM.
For `COC(=O)c1ccc2c(ccn2-c2cccc(NC(=O)c3ccc(Cl)c(C(F)(F)F)c3)c2)n1`, the IC50 [1] was > 10 µM and the IC50 (HS27) was > 10 µM.
Work on `COC(=O)c1ccc2c(ccn2-c2ccc(NC(=O)c3ccc(Cl)c(C(F)(F)F)c3)cc2)n1` yielded an IC50 [1] of 3 µM and an IC50 (HS27) of 2.9 µM.
In the case of `O=C(Nc1ccc(-n2ccc3nc(C(=O)NCc4ccccc4)ccc32)cc1)Nc1ccc(Cl)c(C(F)(F)F)c1`, the IC50 [1] is reported as 1.1 µM and the IC50 (HS27) is reported as 3 µM.
For `COC(=O)c1ccc2c(ccn2-c2ccc(NC(=O)c3ccc(N4CCOCC4)c(C(F)(F)F)c3)cc2)n1`, the IC50 [1] was 9.8 µM and the IC50 (HS27) was > 10 µM.
Compound `O=C(Nc1ccc(-n2ccc3nc(C(=O)NCc4ccccc4)ccc32)cc1)c1ccc(N2CCOCC2)c(C(F)(F)F)c1` has an IC50 [1] of 0.9 µM and an IC50 (HS27) of 2.6 µM.
For `COC(=O)c1ccc2c(ccn2-c2ccc(NC(=O)Nc3cccc(Cl)c3Cl)cc2)n1`, the IC50 [1] was 6.4 µM and the IC50 (HS27) was > 10 µM.
In the case of `COC(=O)c1ccc2c(ccn2-c2ccc(NC(=O)c3cc(N4CCOCC4)cc(C(F)(F)F)c3)cc2)n1`, the IC50 [1] is reported as > 10 µM and the IC50 (HS27) is reported as > 10 µM.
With `NC(=O)c1ccc2c(ccn2-c2ccc(NC(=O)Nc3cccc(Cl)c3Cl)cc2)n1` the IC50 [1] was 4.6 µM and the IC50 (HS27) was 9.8 µM.
With `O=C(Nc1ccc(-n2ccc3nc(C(=O)NCc4ccccc4)ccc32)cc1)Nc1cccc(C(F)(F)F)c1` the IC50 [1] was 7.9 µM and the IC50 (HS27) was > 10 µM.
Compound `COC(=O)c1ccc2c(ccn2-c2ccc(NC(=O)c3cccc(C(F)(F)F)c3)cc2)n1` has an IC50 [1] of 9.5 µM and an IC50 (HS27) of 9.8 µM.
Work on `CNC(=O)c1cc(Oc2ccc(NC(=O)Nc3ccc(Cl)c(C(F)(F)F)c3)cc2)ccn1` [SORAFENIB] yielded an IC50 [1] of 5.6 µM.
In the case of `COC(=O)c1ccc2c(ccn2-c2cccc(NC(=O)Nc3cccc(C(F)(F)F)c3)c2)n1`, the IC50 [1] is reported as > 10 µM and the IC50 (HS27) is reported as > 10 µM.
Work on `COC(=O)c1ccc2c(ccn2-c2ccc(NC(=O)Nc3ccc(Cl)c(Cl)c3)cc2)n1` yielded an IC50 [1] of 3.8 µM and an IC50 (HS27) of 2.8 µM.
For `COC(=O)c1ccc2c(ccn2-c2cccc(NC(=O)Nc3ccc(Cl)c(C(F)(F)F)c3)c2)n1`, the IC50 [1] was 9.5 µM and the IC50 (HS27) was > 10 µM.
With `COC(=O)c1ccc2c(ccn2-c2cccc(NC(=O)c3cccc(C(F)(F)F)c3)c2)n1` the IC50 [1] was > 10 µM and the IC50 (HS27) was > 10 µM.
In the case of `COC(=O)c1ccc2c(ccn2-c2ccc(NC(=O)Nc3ccc(Cl)c(C(F)(F)F)c3)cc2)n1`, the IC50 [1] is reported as 3.6 µM and the IC50 (HS27) is reported as 8.2 µM.
